The text below walks through data of US20060241172A1, “Benzodioxane and benzodioxolane derivatives and uses thereof” (Wyeth, priority 2005, published 2006).

A word on the Kd: it is a measure of binding affinity in units of concentration. In general, Ki refers to the dissociation constant of the complex between target and ligand, obtained from inhibition or displacement. What is called Emax is the maximal effect, on the per cent scale that the assay sets. A word on the EC50: it is the concentration giving half of the maximal effect.

Experiment [1] addresses T1, human serotonin 5-HT2C receptor (Homo sapiens, UniProt P28335).
T1 construct: expressed in transfected cells; host or cells: CHO (Chinese Hamster Ovary) cells; membranes
T1 sequence (P28335 33-458): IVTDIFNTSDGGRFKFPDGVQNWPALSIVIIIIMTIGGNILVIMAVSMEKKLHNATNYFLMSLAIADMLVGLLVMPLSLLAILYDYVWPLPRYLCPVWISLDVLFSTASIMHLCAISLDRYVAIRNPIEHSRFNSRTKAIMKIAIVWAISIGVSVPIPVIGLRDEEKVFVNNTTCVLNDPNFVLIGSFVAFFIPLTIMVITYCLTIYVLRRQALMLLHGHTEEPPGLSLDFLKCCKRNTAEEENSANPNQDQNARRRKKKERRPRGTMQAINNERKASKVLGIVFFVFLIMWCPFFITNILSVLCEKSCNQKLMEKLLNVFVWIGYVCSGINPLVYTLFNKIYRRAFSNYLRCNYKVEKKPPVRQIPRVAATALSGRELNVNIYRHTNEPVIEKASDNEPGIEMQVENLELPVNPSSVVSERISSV
Put plainly: Saturation binding of [125I] DOI. The note with it: saturation binding with increasing concentrations of [125I] DOI; read-out: dissociation constant, KD. How it is done:
DOI. The reaction was initiated by the final addition of 100 μL of tissue suspension containing 50 μg of receptor protein. […] Test compounds were added in 20.0 μL. The mixture was incubated at room temperature for 60 min. The incubation was stopped by rapid filtration. The bound ligand-receptor complex was filtered off on a 96 well unifilter with a Packard® Filtermate 196 Harvester. The bound complex caught on the filter disk was dried in a vacuum oven heated to 60° C. and the radioactivity measured by liquid scintillation with 40 μL Microscint-20 scintillant in a Packard TopCount® equipped with six (6) photomultiplier detectors.

Experiment [2] has as its target T2, human 5-hydroxytryptamine-2C (h5-HT2C) receptor (Homo sapiens, UniProt P28335).
T2 construct: expressed in transfected cells; host or cells: CHO (Chinese Hamster Ovary) cells; membranes
T2 sequence (P28335 33-458): T1 sequence (P28335 33-458)
The experiment is described as follows: 5-HT2C binding: [125I]DOI displacement in membranes of transfected CHO cells. The note with it: read-out: 5-HT2C Binding Ki avg.

The target in another experiment is T3, human 5-HT2C receptor (Homo sapiens, UniProt P28335).
T3 sequence (P28335 33-458): T1 sequence (P28335 33-458)
The experiment is described as follows: 5-HT2C receptor-stimulated calcium mobilization (FLIPR) in CHO cells. The note with it: for Emax: CHO, read-out: 5-HT2C Function EMax (%); for EC50: read-out: 5-HT2C Function EC50. The format is cell-based.

Experiment [3] deals with male C57BL/6J mice and lean Zucker rats. The experiment is described as follows: Obesity Model A: acute food intake after overnight fast, oral dosing. The format is in vivo. How it is done:
To evaluate acute in vivo efficacy of various compounds, 7 weeks-old male C57BL/6J mice were obtained from The Jackson Laboratory (Bar Harbor, Me.) and 6 weeks-old lean Zucker rats were purchased from Charles River Laboratories (Wilmington, Mass.). Mice and rats were single housed in a temperature-controlled (25° C.) facility with a 12-h light/dark cycle. Animals were allowed normal chow diet (Rodent chow #5001, PharmaServ, Framingham, Mass.) and water ad libitum. After one week acclimation, animals were randomized to vehicle (saline) or treatment groups. Animals were fasted overnight (16 hrs) and orally dosed with vehicle or compounds. Thirty minutes after compound administration, animals were given a weighed amount of food, and food intake was recorded 30 minutes, 1 h, 2 h, 4 h, 7 h and 24 h after refeeding.

[4] abbreviates: 10 mpk oral, 0.5 hour after refeeding.
The mark [5] stands for this setting: 10 mpk oral, 2 hours after refeeding.
[6] abbreviates: 10 mpk oral, 4 hours after refeeding.
[7] abbreviates: 30 mpk oral, 0.5 hour after refeeding.
Where [8] appears, read: 30 mpk oral, 2 hours after refeeding.
The mark [9] stands for this setting: 30 mpk oral, 4 hours after refeeding.
Where [10] appears, read: 50 mpk oral, 0.5 hour after refeeding.
[11] abbreviates: 50 mpk oral, 2 hours after refeeding.
Setting [12] is: 50 mpk oral, 4 hours after refeeding.

Each structure is given as a SMILES string.

In the case of `COc1cc(CC(C)N)c(OC)cc1I` (stereo not shown) [[^125I] DOI], the Kd in experiment [1] worked out at 0.4 nM.
As to `NCC1COc2cccc(-c3ccccc3C(F)(F)F)c2O1` (stereo not shown) [Compound I-4, ({8-[2-(Trifluoromethyl)phenyl]-2,3-dihydro-1,4-benzodioxin-2-yl}methyl)amine], in experiment [2], the inhibition constant (Ki) was below 50 nM. Also, the Emax at human 5-HT2C receptor is 70%. Also, the concentration for a half-maximal effect (EC50) at human 5-HT2C receptor was below 100 nM. Besides, the “% Reduction food intake (vs vehicle)” value turned out to be 9 ± 6% in experiment [3] (setting [4]); 5 ± 8% in experiment [3] (setting [5]); 2 ± 7% in experiment [3] (setting [6]); 29 ± 7% in experiment [3] (setting [7]); 14 ± 8% in experiment [3] (setting [8]); 0 ± 16% in experiment [3] (setting [9]). Besides, the “% Reduction food intake (vs vehicle)” value in experiment [3] (setting [10]) was 56 ± 10%; in experiment [3] (setting [11]) it was 27 ± 11%; in experiment [3] (setting [12]), 8 ± 14%.
For `NC[C@H]1COc2cccc(-c3c(Cl)cccc3Cl)c2O1` [Compound I-46, {[(2S)-8-(2,6-Dichlorophenyl)-2,3-dihydro-1,4-benzodioxin-2-yl]methyl}amine], the Ki in experiment [2] is below 50 nM. Also, the Emax on human 5-HT2C receptor was 50%. For the same compound, on human 5-HT2C receptor, the concentration giving a half-maximal response (EC50) was below 100 nM. For the same compound, the “% Reduction food intake (vs vehicle)” value in experiment [3] (1 mpk oral, 0.5 hour after refeeding) is 0 ± 12%; in experiment [3] (1 mpk oral, 2 hours after refeeding) it was 0 ± 6%; in experiment [3] (1 mpk oral, 4 hours after refeeding), 1 ± 8%; in experiment [3] (3 mpk oral, 0.5 hour after refeeding), 12 ± 8%; in experiment [3] (3 mpk oral, 2 hours after refeeding), 11 ± 5%; in experiment [3] (3 mpk oral, 4 hours after refeeding), 14 ± 7%. For the same compound, the “% Reduction food intake (vs vehicle)” value in experiment [3] (setting [4]) is recorded as 74 ± 7%; in experiment [3] (setting [5]), 68 ± 5%; in experiment [3] (setting [6]), 51 ± 4%; in experiment [3] (setting [7]), 78 ± 14%; in experiment [3] (setting [8]) it was 88 ± 8%; in experiment [3] (setting [9]), 82 ± 7%. For the same compound, the “% Reduction food intake (vs vehicle)” value in experiment [3] (setting [10]) was 100 ± 11%; in experiment [3] (setting [11]), 100 ± 5%; in experiment [3] (setting [12]), 98 ± 4%.
`NCC1COc2cccc(-c3ccccc3Cl)c2O1` (stereo not shown) [Compound I-1, {[8-(2-Chlorophenyl)-2,3-dihydro-1,4-benzodioxin-2-yl]methyl}amine]: the Ki in experiment [2] was below 50 nM. Moreover, on human 5-HT2C receptor, the maximal response (Emax) was determined as 60%. Moreover, the EC50 at human 5-HT2C receptor is below 100 nM. For the same compound, the “% Reduction food intake (vs vehicle)” value came out at 4 ± 8% in experiment [3] (setting [4]); 6 ± 8% in experiment [3] (setting [5]); 16 ± 8% in experiment [3] (setting [6]); 60 ± 12% in experiment [3] (setting [7]); 40 ± 8% in experiment [3] (setting [8]); 42 ± 5% in experiment [3] (setting [9]). The results for the “% Reduction food intake (vs vehicle)” value in experiment [3] (setting [10]), in experiment [3] (setting [11]) and in experiment [3] (setting [12]) were 74 ± 17%, 55 ± 13% and 48 ± 13%, respectively.
With `Clc1ccc(-c2cccc3c2OC(CNC2CC2)CO3)c(Cl)c1` (stereo not shown) [Compound I-44, N-{[8-(2,4-Dichlorophenyl)-2,3-dihydro-1,4-benzodioxin-2-yl]methyl}cyclopropanamine], in experiment [2], the Ki was 50 to 200 nM. Moreover, the concentration giving a half-maximal response (EC50) on human 5-HT2C receptor was above 500 nM.
For `COc1ccc(Cl)cc1-c1cccc2c1OC(CN)CO2` (stereo not shown) [Compound I-16, {[8-(5-Chloro-2-methoxyphenyl)-2,3-dihydro-1,4-benzodioxin-2-yl]methyl}amine], the Ki in experiment [2] lay within 50 to 200 nM. Further, on human 5-HT2C receptor, the Emax turned out to be 60% and the 50% effective concentration (EC50) is below 100 nM.
For `NC[C@H]1COc2cc(Cl)cc(-c3ccc(Cl)cc3Cl)c2O1` [Compound I-64, (2S)-[6-Chloro-8-(2,4-dichloro-phenyl)-2,3-dihydro-benzo[1,4]dioxin-2-yl]-methyl amine] the same measures were below 50 nM, 60% and 100 to 500 nM.
As for `CCCNCC1COc2cccc(-c3ccc(Cl)cc3Cl)c2O1` (stereo not shown) [Compound I-35, N-{[8-(2,4-Dichlorophenyl)-2,3-dihydro-1,4-benzodioxin-2-yl]methyl}propan-1-amine], the Ki in experiment [2] lay in the range of 50 to 200 nM. In addition, the EC50 on human 5-HT2C receptor is above 500 nM.
Consider `NC[C@H]1COc2ccc(Cl)c(-c3ccccc3Cl)c2O1` [Compound I-70, (2S)-[7-Chloro-8-(2-chloro-phenyl)-2,3-dihydro-benzo[1,4]dioxin-2-yl]-methylamine], for which, in experiment [2], the inhibition constant Ki is below 50 nM. At human 5-HT2C receptor, the Emax was 50% and the EC50 was below 100 nM.
The matching figures for `COc1ccccc1-c1cc(Cl)cc2c1O[C@@H](CN)CO2` [Compound I-61, (2S)-[6-Chloro-8-(2-methoxy-phenyl)-2,3-dihydro-benzo[1,4]dioxin-2-yl]-methylamine]: below 50 nM, 50% and 100 to 500 nM.
In the case of `CN(C)CC1COc2cccc(-c3ccccc3Cl)c2O1` (stereo not shown) [Compound I-38, {[8-(2-Chlorophenyl)-2,3-dihydro-1,4-benzodioxin-2-yl]methyl}dimethylamine], the Ki in experiment [2] is below 50 nM. At human 5-HT2C receptor, the Emax amounted to 30% and the half-maximal effective concentration (EC50) lay within 100 to 500 nM.
With `Clc1ccc(-c2cccc3c2OC(CNCC2CC2)CO3)c(Cl)c1` (stereo not shown) [Compound I-42, (Cyclopropylmethyl) {[8-(2,4-dichlorophenyl)-2,3-dihydro-1,4-benzodioxin-2-yl]methyl}amine], the inhibition constant (Ki) in experiment [2] was above 200 nM. In addition, the EC50 at human 5-HT2C receptor was above 500 nM.
